The record followed here is patent US10357493B2, “Metalloenzyme inhibitor compounds” (Selenity Therapeutics (Bermuda), Ltd., priority 2017, dated 2019).

One data set has as its target HDAC1 (Homo sapiens (Human), UniProt Q13547). Put plainly: HDAC1 enzymatic assay. The format is biochemical. An outline of the steps:
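Compound inhibition of human HDAC1 (0.5 ng enzyme, 10 uM substrate) was assessed by fluorescence after developer treatment, excitation 360 nm and emission 460 nm. Percent activity was normalized to no-compound (100%) and no-enzyme (0%) controls, plotted against concentration, and fitted to a sigmoidal dose-response curve in Graphpad Prism to obtain IC50 at half-maximal activity.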

Data set [1] in a line: Mouse Pharmacokinetics, oral single dose. It counts as in vivo, male Swiss Albino mice. The settings on record: male, Swiss Albino, plasma, 5 mg/kg, formulation by footnote: a 20% CremEL in H20, b 1% CMC in water, c 2% DMSO, 0.2% Tween80, 97.8% of 1% CMC. The protocol:
Example 187: Mouse Pharmacokinetics
A dose of 5 mg/kg in an appropriate formulation was administered by oral gavage to fasted male Swiss Albino mice (n=3), and the plasma was collected at 0, 0.25, 0.5, 1, 2, 4, 8, and 24 h. Plasma levels were measured by HPLC/MS/MS methods and the pharmacokinetic parameters were determined for individual animals from plasma concentration-time data using noncompartmental model 200-202 in Phoenix WinNonlin 6.3.

The target in a further data set is HDAC6 (Homo sapiens (Human), UniProt Q9UBN7). As to the kind of experiment: HDAC6 enzymatic assay. The format is biochemical. An outline of the steps:
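Following a 17 hour room-temperature incubation of 2 ng HDAC6 with 10 uM substrate and compound, 50 μl developer was added for another 20 minutes, and fluorescence (excitation 360 nm, emission 460 nm) was recorded. Activity was normalized to no-compound (100%) and no-enzyme (0%) wells, and IC50 came from sigmoidal dose-response fitting in Graphpad Prism.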

The next data set addresses HDAC5 (Homo sapiens (Human), UniProt Q9UQL6). As to the kind of experiment: HDAC5 enzymatic assay. The settings on record: selectivity profile; read-out: HDAC Enzyme IC50, HDAC 5. The format is biochemical. Here is the method:
(§1) All enzymatic reactions were conducted in duplicate at room temperature for 17 hours in a 50 μl mixture containing HDAC assay buffer (50 mM Tris-HCl, pH 7.4, 137 mM NaCl, 2.7 mM KCl, 0.05% Tween 20, 5 μg BSA), an HDAC substrate, an HDAC enzyme, and a test compound. Compound dilution was prepared ten-fold higher than the final concentration of the compounds with 10% DMSO in HDAC assay buffer and 5 μl of the dilution was added to a 50 μl reaction so that the final concentration of DMSO is 1% in all of reactions. After enzymatic reactions, 50 μl of HDAC Developer was added to each well and the plate was incubated at room temperature for an additional 20 minutes. Fluorescence intensity was measured at an excitation of 360 nm and an emission of 460 nm using a Tecan Infinite M1000 or Biotek Synergy microplate reader.
(§2) The fluorescent intensity data were analyzed using the computer software, Graphpad Prism. In the absence of the compound, the fluorescent intensity (Ft) in each data set was defined as 100% activity. In the absence of HDAC, the fluorescent intensity (Fb) in each data set was defined as 0% activity. The percent activity in the presence of each compound was calculated according to the following equation: % activity=(F−Fb)/(Ft−Fb), where F=the fluorescent intensity in the presence of the compound.
(§3) The values of % activity versus a series of compound concentrations were then plotted using non-linear regression analysis of Sigmoidal dose-response curve generated with the equation Y=B+(T−B)/1+10((Log EC50−X)×Hill Slope), where Y=percent activity, B=minimum percent activity, T=maximum percent activity, X=logarithm of compound and Hill Slope=slope factor or Hill coefficient. The IC50 value was determined by the concentration causing a half-maximal percent activity.
(§4) HDAC1 enzymatic assays contained 0.5 ng HDAC1 and 10 uM of HDAC substrate. HDAC2 enzymatic assays contained 0.5 ng HDAC2 and 10 uM of HDAC substrate. HDAC3 enzymatic assays contained 0.4 ng HDAC3/NCOR2 and 10 uM of HDAC substrate. HDAC4 enzymatic assays contained 0.02 ng HDAC4 and 2 uM of HDAC substrate. HDAC5 enzymatic assays contained 0.5 ng HDAC5 and 2 uM of HDAC substrate. HDAC6 enzymatic assays contained 2 ng HDAC6 and 10 uM of HDAC substrate. HDAC7 enzymatic assays contained 0.05 ng HDAC7 and 2 uM of HDAC substrate. HDAC8 enzymatic assays contained 5 ng HDAC8 and 2 uM of HDAC substrate. HDAC9 enzymatic assays contained 1 ng HDAC9 and 2 uM of HDAC substrate. HDAC10 enzymatic assays contained 75 ng HDAC10 and 10 uM of HDAC substrate. HDAC11 enzymatic assays contained 5 ng HDAC11 and 2 uM of HDAC substrate.

Another data set deals with HDAC2 (Homo sapiens (Human), UniProt Q92769). As to the kind of experiment: HDAC2 enzymatic assay. The format is biochemical. The settings on record: selectivity profile; read-out: HDAC Enzyme IC50, HDAC 2. Here is the method: as §1, §2, §3, §4
Chain of HDAC2 (Q92769 whole entry, species assumed): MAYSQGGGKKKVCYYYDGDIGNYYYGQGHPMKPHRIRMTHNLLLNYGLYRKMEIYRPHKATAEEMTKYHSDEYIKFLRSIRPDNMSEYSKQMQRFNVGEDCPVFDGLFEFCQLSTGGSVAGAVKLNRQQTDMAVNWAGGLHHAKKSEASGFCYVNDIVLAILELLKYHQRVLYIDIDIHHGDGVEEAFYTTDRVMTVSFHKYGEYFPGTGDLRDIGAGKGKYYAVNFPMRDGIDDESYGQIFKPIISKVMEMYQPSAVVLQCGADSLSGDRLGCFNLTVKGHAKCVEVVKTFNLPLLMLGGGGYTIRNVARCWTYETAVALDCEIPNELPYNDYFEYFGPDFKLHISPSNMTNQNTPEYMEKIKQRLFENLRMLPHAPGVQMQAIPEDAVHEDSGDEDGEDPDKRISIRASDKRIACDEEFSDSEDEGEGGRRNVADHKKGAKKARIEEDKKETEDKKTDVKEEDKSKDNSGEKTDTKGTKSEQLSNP
For a further data set, the target named is HDAC10 (Homo sapiens (Human), UniProt Q969S8). As to the kind of experiment: HDAC10 enzymatic assay. It counts as biochemical. The settings on record: selectivity profile; read-out: HDAC Enzyme IC50, HDAC 10. The protocol: as §1, §2, §3, §4
In the next data set the target is HDAC4 (Homo sapiens (Human), UniProt P56524). Put plainly: HDAC4 enzymatic assay. The settings on record: selectivity profile; read-out: HDAC Enzyme IC50, HDAC 4. The format is biochemical. The protocol: as §1, §2, §3, §4
In another data set the target is HDAC8 (Homo sapiens (Human), UniProt Q9BY41). As to the kind of experiment: HDAC8 enzymatic assay. The settings on record: selectivity profile; read-out: HDAC Enzyme IC50, HDAC 8. The format is biochemical. Here is the method: as §1, §2, §3, §4
Chain of HDAC8 (Q9BY41 whole entry, species assumed): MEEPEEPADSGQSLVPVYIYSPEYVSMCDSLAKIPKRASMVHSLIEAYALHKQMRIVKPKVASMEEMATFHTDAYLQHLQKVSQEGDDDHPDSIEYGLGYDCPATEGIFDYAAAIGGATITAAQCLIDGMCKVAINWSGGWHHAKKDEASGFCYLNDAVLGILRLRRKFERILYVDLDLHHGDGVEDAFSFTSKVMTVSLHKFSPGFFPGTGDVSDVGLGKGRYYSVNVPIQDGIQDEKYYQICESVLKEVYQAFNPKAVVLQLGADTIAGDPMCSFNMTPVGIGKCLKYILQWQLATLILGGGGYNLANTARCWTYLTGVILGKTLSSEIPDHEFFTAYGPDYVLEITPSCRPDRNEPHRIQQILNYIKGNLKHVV
The target in the next data set is HDAC11 (Homo sapiens (Human), UniProt Q96DB2). Put plainly: HDAC11 enzymatic assay. It counts as biochemical. The settings on record: selectivity profile; read-out: HDAC Enzyme IC50, HDAC 11. The protocol:
as §1, §2, §3, §4

In a further data set the target is HDAC3/NCOR2 (Homo sapiens (Human), UniProt O15379). Put plainly: HDAC3 enzymatic assay. The format is biochemical. The settings on record: selectivity profile; read-out: HDAC Enzyme IC50, HDAC 3. Here is the method:
as §1, §2, §3, §4

The next data set has as its target HDAC9 (Homo sapiens (Human), UniProt Q9UKV0). Put plainly: HDAC9 enzymatic assay. The settings on record: selectivity profile; read-out: HDAC Enzyme IC50, HDAC 9. It counts as biochemical. The protocol: as §1, §2, §3, §4
The target of another data set is HDAC7 (Homo sapiens (Human), UniProt Q8WUI4). Put plainly: HDAC7 enzymatic assay. The format is biochemical. The settings on record: selectivity profile; read-out: HDAC Enzyme IC50, HDAC 7. Here is the method: as §1, §2, §3, §4
Chain of HDAC7 (Q8WUI4 whole entry): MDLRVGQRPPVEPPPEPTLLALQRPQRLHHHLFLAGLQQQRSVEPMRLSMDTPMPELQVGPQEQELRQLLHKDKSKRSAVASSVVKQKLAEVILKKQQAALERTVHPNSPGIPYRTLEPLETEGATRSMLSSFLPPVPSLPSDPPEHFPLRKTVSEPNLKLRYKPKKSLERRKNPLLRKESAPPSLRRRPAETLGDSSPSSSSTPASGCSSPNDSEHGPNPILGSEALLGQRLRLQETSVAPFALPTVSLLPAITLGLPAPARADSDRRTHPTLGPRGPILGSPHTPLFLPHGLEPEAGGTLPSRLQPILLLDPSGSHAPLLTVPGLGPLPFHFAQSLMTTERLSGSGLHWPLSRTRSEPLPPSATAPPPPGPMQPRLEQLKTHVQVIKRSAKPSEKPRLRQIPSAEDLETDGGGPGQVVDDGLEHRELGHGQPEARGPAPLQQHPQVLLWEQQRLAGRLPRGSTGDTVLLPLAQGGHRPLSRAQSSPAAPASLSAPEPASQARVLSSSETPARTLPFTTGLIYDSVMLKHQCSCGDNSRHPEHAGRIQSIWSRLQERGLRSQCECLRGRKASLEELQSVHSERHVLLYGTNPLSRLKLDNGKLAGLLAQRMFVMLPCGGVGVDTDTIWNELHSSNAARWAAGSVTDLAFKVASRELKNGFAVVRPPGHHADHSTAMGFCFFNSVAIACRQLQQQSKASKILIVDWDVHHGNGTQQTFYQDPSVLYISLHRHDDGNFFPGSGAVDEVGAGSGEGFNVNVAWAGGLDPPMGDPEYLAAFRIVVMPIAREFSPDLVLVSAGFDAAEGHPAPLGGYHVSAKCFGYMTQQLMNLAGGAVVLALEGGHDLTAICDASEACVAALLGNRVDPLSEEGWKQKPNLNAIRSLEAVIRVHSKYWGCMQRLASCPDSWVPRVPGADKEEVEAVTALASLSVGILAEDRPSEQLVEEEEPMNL
Setting [2] is: selectivity profile, read-out: HDAC Enzyme IC50, HDAC 1.
Setting [3] is: selectivity profile, read-out: HDAC Enzyme IC50, HDAC 6.

Like-named read-outs stand apart in the source and are kept apart here.

Chain of HDAC1 (Q13547 whole entry): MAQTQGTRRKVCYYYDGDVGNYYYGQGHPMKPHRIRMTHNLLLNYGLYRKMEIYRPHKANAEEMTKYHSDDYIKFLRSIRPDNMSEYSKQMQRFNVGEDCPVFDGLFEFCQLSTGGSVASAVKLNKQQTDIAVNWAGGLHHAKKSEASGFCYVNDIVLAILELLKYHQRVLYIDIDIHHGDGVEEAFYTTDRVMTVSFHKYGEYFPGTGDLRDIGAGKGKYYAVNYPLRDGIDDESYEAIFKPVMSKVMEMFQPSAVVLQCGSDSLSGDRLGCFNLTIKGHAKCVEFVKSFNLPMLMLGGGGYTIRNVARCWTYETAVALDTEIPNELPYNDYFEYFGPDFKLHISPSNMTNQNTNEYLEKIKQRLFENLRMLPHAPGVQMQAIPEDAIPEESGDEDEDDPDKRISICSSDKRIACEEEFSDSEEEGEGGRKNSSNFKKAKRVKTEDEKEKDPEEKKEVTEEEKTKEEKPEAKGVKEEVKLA
Chain of HDAC6 (Q9UBN7 whole entry): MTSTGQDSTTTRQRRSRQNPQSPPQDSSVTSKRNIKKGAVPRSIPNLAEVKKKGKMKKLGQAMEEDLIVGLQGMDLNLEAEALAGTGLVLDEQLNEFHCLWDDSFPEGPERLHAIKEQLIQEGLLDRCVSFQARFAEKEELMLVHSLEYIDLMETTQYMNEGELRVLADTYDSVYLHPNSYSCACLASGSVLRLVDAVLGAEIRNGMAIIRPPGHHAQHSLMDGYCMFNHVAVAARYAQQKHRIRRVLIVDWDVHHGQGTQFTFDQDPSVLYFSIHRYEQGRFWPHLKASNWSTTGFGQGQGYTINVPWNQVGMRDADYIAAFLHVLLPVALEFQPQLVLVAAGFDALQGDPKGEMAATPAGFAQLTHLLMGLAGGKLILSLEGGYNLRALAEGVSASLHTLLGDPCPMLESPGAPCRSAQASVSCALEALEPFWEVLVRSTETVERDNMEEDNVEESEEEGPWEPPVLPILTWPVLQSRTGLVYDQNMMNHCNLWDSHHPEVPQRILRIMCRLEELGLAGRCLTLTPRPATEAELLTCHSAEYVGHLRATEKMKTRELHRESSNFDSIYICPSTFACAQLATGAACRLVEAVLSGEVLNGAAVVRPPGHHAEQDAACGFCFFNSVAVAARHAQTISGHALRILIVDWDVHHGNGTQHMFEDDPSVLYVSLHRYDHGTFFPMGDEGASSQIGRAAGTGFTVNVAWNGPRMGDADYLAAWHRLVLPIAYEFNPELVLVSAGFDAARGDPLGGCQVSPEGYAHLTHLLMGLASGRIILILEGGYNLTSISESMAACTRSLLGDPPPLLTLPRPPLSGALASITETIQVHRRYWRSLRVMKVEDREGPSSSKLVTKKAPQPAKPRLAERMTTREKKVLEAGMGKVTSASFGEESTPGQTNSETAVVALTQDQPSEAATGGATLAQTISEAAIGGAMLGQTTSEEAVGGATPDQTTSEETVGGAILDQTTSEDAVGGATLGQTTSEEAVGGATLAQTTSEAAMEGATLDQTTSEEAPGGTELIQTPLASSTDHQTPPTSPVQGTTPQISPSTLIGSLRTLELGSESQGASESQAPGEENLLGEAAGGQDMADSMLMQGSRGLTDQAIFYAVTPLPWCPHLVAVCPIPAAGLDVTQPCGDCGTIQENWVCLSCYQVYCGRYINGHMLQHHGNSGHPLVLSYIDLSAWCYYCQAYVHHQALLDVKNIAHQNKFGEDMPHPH
Chain of HDAC11 (Q96DB2 whole entry, species assumed): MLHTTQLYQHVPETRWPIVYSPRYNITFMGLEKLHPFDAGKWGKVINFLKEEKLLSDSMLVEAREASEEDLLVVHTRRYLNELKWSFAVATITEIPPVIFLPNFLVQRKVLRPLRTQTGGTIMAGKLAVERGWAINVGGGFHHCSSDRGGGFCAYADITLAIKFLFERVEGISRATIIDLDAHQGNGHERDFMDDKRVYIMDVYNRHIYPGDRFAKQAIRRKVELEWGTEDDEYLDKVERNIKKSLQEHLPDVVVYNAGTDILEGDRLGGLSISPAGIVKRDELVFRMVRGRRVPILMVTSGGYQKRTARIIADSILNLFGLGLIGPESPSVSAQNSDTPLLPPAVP
Chain of HDAC5 (Q9UQL6 whole entry, species assumed): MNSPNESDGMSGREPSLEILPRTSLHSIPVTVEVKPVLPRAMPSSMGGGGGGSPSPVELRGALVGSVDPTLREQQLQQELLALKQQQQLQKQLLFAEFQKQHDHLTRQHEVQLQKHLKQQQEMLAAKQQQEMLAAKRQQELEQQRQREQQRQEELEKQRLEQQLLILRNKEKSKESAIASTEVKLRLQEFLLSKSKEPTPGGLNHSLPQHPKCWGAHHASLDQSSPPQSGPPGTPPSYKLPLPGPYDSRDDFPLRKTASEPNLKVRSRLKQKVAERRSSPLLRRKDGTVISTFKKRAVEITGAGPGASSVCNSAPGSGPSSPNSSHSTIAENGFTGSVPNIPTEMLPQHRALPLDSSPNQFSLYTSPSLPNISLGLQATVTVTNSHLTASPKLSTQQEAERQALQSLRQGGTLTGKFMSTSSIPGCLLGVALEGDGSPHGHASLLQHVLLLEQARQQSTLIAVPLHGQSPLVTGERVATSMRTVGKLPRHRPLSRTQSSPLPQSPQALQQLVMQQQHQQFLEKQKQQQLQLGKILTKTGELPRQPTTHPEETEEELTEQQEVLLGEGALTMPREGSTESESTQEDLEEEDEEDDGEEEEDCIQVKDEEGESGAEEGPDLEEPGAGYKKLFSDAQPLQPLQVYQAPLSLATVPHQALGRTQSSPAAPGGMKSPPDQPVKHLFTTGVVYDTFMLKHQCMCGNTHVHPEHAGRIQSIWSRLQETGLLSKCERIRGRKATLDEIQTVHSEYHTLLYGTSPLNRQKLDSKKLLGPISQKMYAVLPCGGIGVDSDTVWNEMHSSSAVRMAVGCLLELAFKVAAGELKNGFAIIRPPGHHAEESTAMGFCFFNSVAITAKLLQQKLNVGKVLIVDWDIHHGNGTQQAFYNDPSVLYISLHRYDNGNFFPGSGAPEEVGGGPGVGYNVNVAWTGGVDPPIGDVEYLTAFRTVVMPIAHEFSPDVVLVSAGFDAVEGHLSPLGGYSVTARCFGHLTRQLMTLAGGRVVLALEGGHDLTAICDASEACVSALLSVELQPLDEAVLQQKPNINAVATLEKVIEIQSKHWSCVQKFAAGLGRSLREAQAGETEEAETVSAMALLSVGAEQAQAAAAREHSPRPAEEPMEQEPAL

Take `CS(=O)(=O)NCC(Nc1ncc(-c2nnc(C(F)F)o2)cn1)c1ccc(F)cc1F` (single isomer, unassigned) [103(+), N-(2-((5-(5-(difluoromethyl)-1,3,4-oxadiazol-2-yl)pyrimidin-2-yl)amino)-2-(2,4-difluorophenyl)ethyl)methanesulfonamide]: at HDAC1 (read-out: Human HDAC1 IC50), the IC50 is greater than 30 µM. In [1], the peak concentration (Cmax) was found to be 2370 ng/mL and the half-life is 3.2 h. Moreover, the IC50 at HDAC6 (read-out: Human HDAC6 IC50) was determined as 0.016 µM.
In the case of `CS(=O)(=O)NCC(Nc1ncc(-c2nnc(C(F)F)o2)cn1)c1ccc(OC(F)F)cc1F` (single isomer, unassigned) [116(+), N-(2-(4-(difluoromethoxy)-2-fluorophenyl)-2-((5-(5-(difluoromethyl)-1,3,4-oxadiazol-2-yl)pyrimidin-2-yl)amino)ethyl)methanesulfonamide], the IC50 on HDAC1 (read-out: Human HDAC1 IC50) was greater than 30 µM. In data set [1], this compound showed a Cmax of 1010 ng/mL and a half-life of 4.5 h. The IC50 at HDAC6 (read-out: Human HDAC6 IC50) was determined as 0.017 µM.
As for `CS(=O)(=O)CC(Nc1ncc(-c2nnc(C(F)F)o2)cn1)c1ccc(F)cc1` (single isomer, unassigned) [161(+), 5-(5-(difluoromethyl)-1,3,4-oxadiazol-2-yl)-N-(1-(4-fluorophenyl)-2-(methylsulfonyl)ethyl)pyrimidin-2-amine], the IC50 on HDAC1 (read-out: Human HDAC1 IC50), at HDAC1 (setting [2]), on HDAC5, at HDAC2, at HDAC10 and on HDAC4 was greater than 30 µM each time. For the same compound, the IC50 on HDAC8 was greater than 30 µM; on HDAC11, greater than 30 µM; on HDAC6 (read-out: Human HDAC6 IC50), 0.043 µM; on HDAC6 (setting [3]), 0.043 µM; on HDAC3/NCOR2, greater than 30 µM; on HDAC9 it was greater than 30 µM. Besides, the IC50 on HDAC7 was greater than 30 µM.
On to `O=C(NCC(Nc1ncc(-c2nnc(C(F)F)o2)cn1)c1ccc(F)cc1)C1CC1` (single isomer, unassigned) [168(+), N-(2-((5-(5-(difluoromethyl)-1,3,4-oxadiazol-2-yl)pyrimidin-2-yl)amino)-2-(4-fluorophenyl)ethyl)cyclopropanecarboxamide], for which the IC50 is greater than 30 µM at HDAC1 (read-out: Human HDAC1 IC50); greater than 30 µM on HDAC1 (setting [2]); greater than 30 µM at HDAC5; greater than 30 µM on HDAC2; greater than 30 µM on HDAC10; 13.8 µM at HDAC4. In addition, the IC50 is greater than 30 µM on HDAC8; greater than 30 µM on HDAC11; 0.029 µM on HDAC6 (read-out: Human HDAC6 IC50); 0.029 µM on HDAC6 (setting [3]); greater than 30 µM on HDAC3/NCOR2; greater than 30 µM at HDAC9. In addition, the IC50 at HDAC7 amounted to 24.4 µM.
On to `CS(=O)(=O)NCC(Nc1ncc(-c2nnc(C(F)F)o2)cn1)c1ccc(F)c(F)c1` (single isomer, unassigned) [171(+), N-(2-((5-(5-(difluoromethyl)-1,3,4-oxadiazol-2-yl)pyrimidin-2-yl)amino)-2-(3,4-difluorophenyl)ethyl)methanesulfonamide], for which the values for the IC50 at HDAC1 (read-out: Human HDAC1 IC50) and at HDAC6 (read-out: Human HDAC6 IC50) were greater than 30 µM and 0.23 µM, respectively. The Cmax in data set [1] came to 2590 ng/mL. The compound also gave a half-life in data set [1] of 3.3 h.
Turning to `CS(=O)(=O)NCC(Nc1ncc(-c2nnc(C(F)F)o2)cn1)c1ccc(Cl)cc1` (single isomer, unassigned) [173(+), N-(2-(4-chlorophenyl)-2-((5-(5-(difluoromethyl)-1,3,4-oxadiazol-2-yl)pyrimidin-2-yl)amino)ethyl)methanesulfonamide], the concentration for half-maximal inhibition (IC50) on HDAC1 (read-out: Human HDAC1 IC50) was greater than 30 µM. In data set [1], this compound had a Cmax of 2820 ng/mL and a half-life of 5.6 h. In addition, the IC50 on HDAC6 (read-out: Human HDAC6 IC50) was 0.024 µM.
On the same counts, the results for `O=S(=O)(NCC(Nc1ncc(-c2nnc(C(F)F)o2)cn1)c1ccc(F)cc1F)C1CC1` (stereo not drawn) [142(+), N-(2-((5-(5-(difluoromethyl)-1,3,4-oxadiazol-2-yl)pyrimidin-2-yl)amino)-2-(2,4-difluorophenyl)ethyl)cyclopropanesulfonamide] are greater than 30 µM, 2530 ng/mL, 4.1 h and 0.035 µM.
On to `O=S(=O)(NCC(Nc1ncc(-c2nnc(C(F)F)o2)cn1)c1ccc(OC(F)F)cc1F)C1CC1` (stereo not drawn) [150(+), N-(2-(4-(difluoromethoxy)-2-fluorophenyl)-2-((5-(5-(difluoromethyl)-1,3,4-oxadiazol-2-yl)pyrimidin-2-yl)amino)ethyl)cyclopropanesulfonamide], for which the IC50 on HDAC1 (read-out: Human HDAC1 IC50) is greater than 30 µM. In addition, in [1], the Cmax is 3390 ng/mL and the half-life was 9.3 h. In addition, the IC50 on HDAC6 (read-out: Human HDAC6 IC50) was determined as 0.023 µM.
On the same counts, the results for `CCS(=O)(=O)NCC(Nc1ncc(-c2nnc(C(F)F)o2)cn1)c1ccc(F)cc1` (stereo not shown) [Example 108, N-(2-((5-(5-(difluoromethyl)-1,3,4-oxadiazol-2-yl)pyrimidin-2-yl)amino)-2-(4-fluorophenyl)ethyl)ethanesulfonamide] are greater than 30 µM, 2120 ng/mL, 2.3 h and 0.027 µM.
On the same counts, the results for `CC(C)S(=O)(=O)NCC(Nc1ncc(-c2nnc(C(F)F)o2)cn1)c1ccc(F)cc1` (stereo not shown) [Example 109, N-(2-((5-(5-(difluoromethyl)-1,3,4-oxadiazol-2-yl)pyrimidin-2-yl)amino)-2-(4-fluorophenyl)ethyl)propane-2-sulfonamide] are greater than 30 µM, 678 ng/mL, 3.4 h and 0.037 µM.

Usually IC50 stands for the concentration that inhibits the measured activity by half. One may read the Cmax as the maximum level reached in the sampled fluid or tissue. Usually half-life stands for the time in which the quantity being followed falls by half. A higher half-life goes with slow decline.
